Series [1] deals with Quadruplex DNA. The experiment in a line: Alkylating activity at 5'-FAM-labeled human telomeric G-quadruplex DNA in K+ buffer at 100 uM measured up to 72 hrs by PAGE analysis. It counts as functional.
The nature of series [2]: Alkylating activity at 5'-FAM-labeled T-T mismatched duplex DNA (unknown origin) in MES buffer at 100 uM measured up to 72 hrs by PAGE analysis. It counts as functional.
The subject of series [3] is Quadruplex DNA. Briefly: Alkylating activity at 5'-FAM-labeled human telomeric G-quadruplex DNA at 100 uM in Na+ buffer measured up to 72 hrs by PAGE analysis. It counts as functional.
Series [4] relates to dsDNA. The experiment in a line: Alkylating activity at 5'-FAM-labeled T-A full-matched duplex DNA (unknown origin) in MES buffer at 100 uM measured up to 72 hrs by PAGE analysis. It counts as functional.
A short description of series [5]: Solubility of the compound in water. Conditions: buffer. It counts as physicochemical.
Series [6] in a line: Binding affinity to T-T mismatched duplex DNA (unknown origin) by isothermal calorimetric titration method.
Series [7] relates to Quadruplex DNA. The experiment in a line: Alkylating activity at human telomeric G-quadruplex DNA in K+ buffer assessed as thermal stabilization by measuring change in melting temperature at 1.5 uM by circular dichroism spectral analysis. It counts as functional. In general terms: Circular dichroism is widely used to follow secondary structure.
Series [8] has as its system Quadruplex DNA. Briefly: Alkylating activity at 12T base of human telomeric G-quadruplex DNA in K+ buffer at 100 uM using 9-mer primer after 72 hrs by primer extension method. It counts as functional.
For series [9], the system named is Quadruplex DNA. Briefly: Effect on conformation of human telomeric G-quadruplex DNA in K+ buffer by circular dichroism spectral analysis. It counts as nucleic-acid assay.
The test system of series [10] is Quadruplex DNA. Briefly: Effect on conformation of human telomeric G-quadruplex DNA in Na+ buffer by circular dichroism spectral analysis. It counts as nucleic-acid assay.
Series [11] relates to Quadruplex DNA. The experiment in a line: Alkylating activity at human telomeric G-quadruplex DNA in Na+ buffer assessed as thermal stabilization by measuring change in melting temperature at 1.5 uM by circular dichroism spectral analysis. It counts as functional.
Series [12] deals with Quadruplex DNA. The experiment in a line: Alkylating activity at 13T base of human telomeric G-quadruplex DNA in K+ buffer at 100 uM using 9-mer primer after 72 hrs by primer extension method. It counts as functional.
The subject of series [13] is Quadruplex DNA. Briefly: Alkylating activity at 14G base of human telomeric G-quadruplex DNA in K+ buffer at 100 uM using 9-mer primer after 72 hrs by primer extension method. It counts as functional.
Series [14] relates to Quadruplex DNA. Briefly: Alkylating activity at 18T base of human telomeric G-quadruplex DNA in K+ buffer at 100 uM using 9-mer primer after 72 hrs by primer extension method. It counts as functional.
Series [15] has as its system Quadruplex DNA. The experiment in a line: Alkylating activity at 19T base of human telomeric G-quadruplex DNA in K+ buffer at 100 uM using 9-mer primer after 72 hrs by primer extension method. It counts as functional.
For series [16], the system named is Quadruplex DNA. Briefly: Alkylating activity at 12T base of human telomeric G-quadruplex DNA in Na+ buffer at 100 uM using 9-mer primer after 72 hrs by primer extension method. It counts as functional.
In series [17] the test system is Quadruplex DNA. Briefly: Alkylating activity at 13T base of human telomeric G-quadruplex DNA in Na+ buffer at 100 uM using 9-mer primer after 72 hrs by primer extension method. It counts as functional.
The test system of series [18] is Quadruplex DNA. The experiment in a line: Alkylating activity at 14G base of human telomeric G-quadruplex DNA in Na+ buffer at 100 uM using 9-mer primer after 72 hrs by primer extension method. It counts as functional.
Series [19] relates to Quadruplex DNA. Briefly: Alkylating activity at 18T base of human telomeric G-quadruplex DNA in Na+ buffer at 100 uM using 9-mer primer after 72 hrs by primer extension method. It counts as functional.
In series [20] the test system is Quadruplex DNA. Briefly: Alkylating activity at 19T base of human telomeric G-quadruplex DNA in Na+ buffer at 100 uM using 9-mer primer after 72 hrs by primer extension method. It counts as functional.
In series [21] the test system is Quadruplex DNA. Briefly: Alkylating activity at 24T base of human telomeric G-quadruplex DNA in Na+ buffer at 100 uM using 9-mer primer after 72 hrs by primer extension method. It counts as functional.
Series [22] relates to Quadruplex DNA. Briefly: Alkylating activity at 25T base of human telomeric G-quadruplex DNA in Na+ buffer at 100 uM using 9-mer primer after 72 hrs by primer extension method. It counts as functional.
Series [23] relates to Quadruplex DNA. The experiment in a line: Alkylating activity at T bases of human telomeric G-quadruplex DNA in K+ buffer at 100 uM using 11-mer primer after 72 hrs by primer extension method. It counts as functional.
The subject of series [24] is Quadruplex DNA. Briefly: Alkylating activity at T bases of human telomeric G-quadruplex DNA in Na+ buffer at 100 uM using 11-mer primer after 72 hrs by primer extension method. It counts as functional.
Series [25] concerns Quadruplex DNA. Briefly: Alkylating activity at T base of human telomeric G-quadruplex DNA in K+ buffer assessed as thymidine-compound adduct formation at 100 uM using 9-mer primer after 72 hrs by alkaline phosphatase and phosphodiesterase-1 enzymatic hydrolysis assay based ESI-MS analysis. It counts as functional.
Series [26] deals with Quadruplex DNA. The experiment in a line: Binding affinity to human telomeric G-quadruplex DNA in K+ buffer at 0.2 uM after 15 mins by spectrofluorometric method. It counts as nucleic-acid assay.
Series [27] is described as follows: Binding affinity to T-T mismatched duplex DNA (unknown origin) in MES buffer at 0.2 uM after 15 mins by spectrofluorometric method.
Series [28] deals with Quadruplex DNA. The experiment in a line: Binding affinity to human telomeric G-quadruplex DNA in Na+ buffer at 0.2 uM after 15 mins by spectrofluorometric method. It counts as nucleic-acid assay.
Series [29] addresses Quadruplex DNA. Briefly: Binding affinity to human telomeric G-quadruplex DNA in K+ buffer at 9.4 uM by UV-vis titration analysis. It counts as nucleic-acid assay.
For series [30], the target named is Quadruplex DNA. Briefly: Binding affinity to human telomeric G-quadruplex DNA in Na+ buffer at 9.4 uM UV-vis titration analysis. It counts as nucleic-acid assay.

Calls of active or inactive are those of the source. No cut-off for these calls is given here.

With `C=Cc1nc(N)nc(NCCCCNc2c3ccccc3nc3c(C(=O)NCCCN(C)CCCNC(C)=O)cccc23)n1`, the result in series [1] and in series [3] was Active. Moreover, the outcome in series [2] and in series [4] was inactive. In addition, the solubility result in series [5] is recorded as “Soluble”.
Take `C=Cc1nc(N)nc(NCCCCNc2c3ccccc3nc3c(C(=O)NCCCN(C)C)cccc23)n1`: the outcome in [1] and in series [3] was Active. The result in series [2] and in series [4] was inactive. Further, the solubility entry in series [5] is reported as “Soluble”.
Broadly, the Kd is the constant that tells how readily two partners part at equilibrium. Read a high Kd as weaker binding. `COc1ccc2nc3cc(Cl)ccc3c(NCCCCNc3nc(N)nc(N)n3)c2c1`: the Kd in [6] came out at 510 nM. That is a sub-micromolar value.
What is called ΔTm is the shift of the melting midpoint relative to a reference. As to `C=Cc1nc(N)nc(NCCCCNc2c3ccc(Cl)cc3nc3ccc(OC)cc23)n1`, the results for the ΔTm in series [7] and in [11] were 12.7 °C and 5.4 °C, respectively. The result in series [8], in [1], in series [2], in series [3], in [12] and in series [13] was Active. In addition, the outcome in [14], in series [15], in series [16], in series [17], in [18] and in [19] was Active. Moreover, the result in series [20], in [21], in series [22], in series [23], in series [24] and in series [25] was Active. The result in series [4], in series [9] and in series [10] was inactive. Moreover, the solubility result in [5] is recorded as “Soluble”.
On to `CSCCc1nc(N)nc(NCCCCNc2c3ccccc3nc3c(C(=O)NCCCN(C)C)cccc23)n1`, for which the equilibrium dissociation constant (Kd) amounted to 440 nM in [26] and 640 nM in series [27]. In series [28], the outcome was inactive.
With `COc1ccc2nc3cc(Cl)ccc3c(NCCCCNc3nc(N)nc(CCSC)n3)c2c1`, the equilibrium dissociation constant (Kd) in series [29] turned out to be 1940 nM; in [26], 610 nM; in [27], 1290 nM; in series [30] it was 2210 nM. Further, the result in series [28] was inactive.

Values taken from ChEMBL document CHEMBL4118221, “Vinyldiaminotriazine-acridine conjugate as G-quadruplex alkylating agent” (Bioorg Med Chem, 2018).
